Test results taken from patent publication US20260373294A1, “PHARMACEUTICAL COMPOSITIONS COMPRISING A PSYCHEDELIC DRUG AND A DENDRITIC NANOCARRIER” (priority 2023, published 2026).
Entries after “also recorded” stand apart in the source; their conditions may differ. Where two headings read alike, the source gives them in different places.

Key:
[1] = tested on: N-methyl-D-aspartate receptor (NMDAR); settings: cited from earlier work
[2] = taken by mouth; cited from earlier work
5-HT2A receptor = settings: cited from earlier work
[3] = Exemplary stability experiment, visual grading of psilocin samples with carriers or stabilizers (Example 6); format: physicochemical; parameters: key to stability, visually graded, under Vacuum at 25 °C / stability, visually graded, at room temperature exposed to air / stability, visually graded, at 50 °C, exposed to air: 0: dark precipitate visible = not stable; 1: discolored = moderately stabilized; 2: slightly discolored = stabilized; 3: transparent = highly stabilized
From the text: Psilocin was mixed with two different batches of CMS carrier (DendroSol®), two different batches of dendritic succinate (hPG-succ, one of which had 25% substitution with succinate, the other one 100%) and two different batches of dendritic succinate functionalized with nalbuphine as anchor molecule (liked via an ester), as well as dendritic succinate deprotonized with NaOH. For comparison, we also mixed psilocin with known stabilizers oxalic acid and ascorbic acid (vitamin C), as well as mixtures of vitamin C with the carriers named above. One sample of pure psilocin solution was kept as a reference.
All samples contained 5 mg/L of psilocin and 2.5 wt % of carrier (for carriers mixed with oxalic acid or vitamin C, the total concentration of additives was 2.5 wt %). In the second part of the experiment, the carrier concentration was varied between 0.6 and 3 wt %.

[4] = cited from earlier work
[5] = cited from earlier work; remark: listed apart in the source
[6] = Diffusion cell tests with porcine oral mucosa (Franz cells) (Example 8); format: in vitro ADME; settings: 2.5% DendroSol; 0.025 mg/100 μL LSD
Method: FIG. 3 Diffusion cell tests with psilocin, LSD and MDMA in Franz cells in the absence and presence of carrier. The tests were carried out with porcine oral mucosa as described in Example 8 below. Each carrier formulation was used on four diffusion cells each. In the graphic, mean values are shown.
Diffusion cell tests were carried out with porcine oral mucosa. Porcine mucosa was freshly prepared and kept in physiological buffer at pH 7.2 at temperatures between 2-8 °C for less than 36 h prior the experiment. The prepared oral mucosa thickness was 0.4-0.65 mm. Concentrations were determined by HPLC-UV. Four diffusion cells with a surface area of 0.54 cm^2 and an acceptor volume of 12.7 mL were used in the experiments for each formulation. Drug-carrier solutions wherein the solvent was water were prepared by either dissolving the drug in ethanol in a glass beaker, letting the ethanol evaporate under high vacuum and then dissolving the drug in the buffered nanocarrier solution. Alternatively, the drug was mixed with the carrier in ethanol in final conditions, the resulting mixture was dried under high vacuum in case of psilocin and afterwards re-dissolved in purified HPLC water.
Each carrier formulation was used on four diffusion cells each. In the graphic, the results were averaged.
Acceptor medium was physiological NaCl solution which was phosphate-buffered to pH 7.2. […]

[7] = intravenous administration of psilocybin; US2022370413A1; cited from earlier work

## CN[C@]1(c2ccccc2Cl)CCCCC1=O [(S)-ketamine]
[1]
  NMDAR antagonism / interaction: stronger

## CNC1(c2ccccc2Cl)CCCCC1=O (stereo not shown) [ketamine]
[1]
  NMDAR antagonism / interaction: antagonist of the N-methyl-D-aspartate receptor

## CNC(C)Cc1ccc2c(c1)OCO2 (stereo not shown) [MDMA, 3,4-methylenedioxymethamphetamine]
[2]
  duration of effects: 3 to 6 h
  onset of effects: 30 to 45 min

## COc1cc(CCN)cc(OC)c1OC [mescaline]
5-HT2A receptor
  5-HT2A receptor agonism: 5-HT2A receptor agonists

## CN(C)CCc1c[nH]c2cccc(O)c12 [Psilocin]
5-HT2A receptor
  5-HT2A receptor agonism: 5-HT2A receptor agonists
[3]; 50 °C, exposed to air, all samples contain psilocin (5 mg/L) and 2.5 wt % carrier/additive
  stability, visually graded, at 50 °C, exposed to air: 0
[3]; conclusion in words
  stability of psilocin, conclusion: could be significantly improved by adding the right carriers
[3]; order of effectiveness, lowest first
  effectiveness of carriers for stabilizing psilocin (ranking): pure psilocin<CMS carrier (DendroSol®)<oxalic acid<dendritic succinate (25%)<dendritic succinate (100%)=functionalized dendritic succinate=dendritic succinate deprotonized with NaOH
[3]; room temperature, exposed to air, all samples contain psilocin (5 mg/L) and 2.5 wt % carrier/additive
  stability, visually graded, at room temperature exposed to air: 0
[3]; under vacuum at 25 °C, all samples contain psilocin (5 mg/L) and 2.5 wt % carrier/additive
  stability, visually graded, under Vacuum at 25 °C: 3
[4]; blood or urine
  stability in biological samples: unstable and is degraded fast by both non-enzymatic and enzymatic processes
[4]; exposed to air and aqueous
  stability in ambient and aqueous environments: poor stability due to photodegradation and oxidation
[4]; psilocin sample protected from light, 14 days
  peak loss over 14 days: 50%

## CN[C@@]1(c2ccccc2Cl)CCCCC1=O [(R)-ketamine]
[5]; (R)-ketamine relative to (S)-ketamine
  antidepressant potency and duration, relative: more long-lasting; also recorded: greater potency and longer-lasting antidepressive effects

## CCN(CC)C(=O)[C@@H]1C=C2c3cccc4[nH]cc(c34)C[C@H]2N(C)C1 [LSD]
[6]
  effect of carrier on diffusion rate, water vs ethanol as solvent: the effect was greater when water was used as solvent than with use of ethanol as solvent
5-HT2A receptor; listed as (+) lysergide
  5-HT2A receptor agonism: partial agonist with a high affinity to this receptor
5-HT2A receptor; listed as lysergide
  5-HT2A receptor agonism: 5-HT2A receptor agonists

## CN(C)CCc1c[nH]c2cccc(OP(=O)(O)O)c12 [psilocybin]
[7]
  variation of maximum plasma concentrations of psilocin between individuals: can vary over three-fold between individuals

## CNC1(c2ccccc2Cl)CCCCC1=O (racemic) [(R,S)-ketamine]
[5]; patients with treatment-resistant post-traumatic stress disorder
  effect in treatment-resistant PTSD: beneficial effects
[5]; treatment-resistant MDD or BD, single or repeated intravenous infusions, 0.5 mg/kg
  antidepressant effect: robust antidepressant and antisuicidal effects
[1]
  NMDAR antagonism / interaction: antagonist of the NMDAR
